Test results as given in PubChem BioAssay (NCI).
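In this assay, cells in 96-well plates receive the compound at five concentrations for 48 hours. Endpoints are linearly interpolated between the surrounding concentrations. At the GI50, growth is halved. TGI is the concentration that stops growth completely.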

Legend:
Assay in all cases: NCI-60 cell line screen, 48 h
UO-31 renal = test system: UO-31 renal
OVCAR-4 ovarian = test system: OVCAR-4 ovarian
SW-620 colon = test system: SW-620 colon
MALME-3M melanoma = test system: MALME-3M melanoma
MDA-MB-435 = test system: MDA-MB-435
RPMI-8226 leukemia = test system: RPMI-8226 leukemia
SK-MEL-2 melanoma = test system: SK-MEL-2 melanoma
NCI-H23 lung = test system: NCI-H23 lung
SNB-75 CNS = test system: SNB-75 CNS
OVCAR-5 ovarian = test system: OVCAR-5 ovarian

What does the source list for `COc1ccc(C2=NN(C(=O)c3cc(OC)c(OC)c(OC)c3)C(c3ccc(N(C)C)cc3)C2)cc1` (centres undefined)?
GI50 (UO-31 renal): 0.558 µM; TGI (UO-31 renal): > 100 µM; GI50 (OVCAR-4 ovarian): 0.548 µM; TGI (OVCAR-4 ovarian): > 100 µM; GI50 (SW-620 colon): 0.427 µM; TGI (SW-620 colon): > 100 µM; GI50 (MALME-3M melanoma): 41.6 µM; TGI (MALME-3M melanoma): > 100 µM; GI50 (MDA-MB-435): 0.205 µM; TGI (MDA-MB-435): 0.478 µM; GI50 (RPMI-8226 leukemia): 0.663 µM; TGI (RPMI-8226 leukemia): > 20 µM; GI50 (SK-MEL-2 melanoma): 83.5 µM; TGI (SK-MEL-2 melanoma): > 100 µM; GI50 (NCI-H23 lung): 1 µM; TGI (NCI-H23 lung): > 100 µM; GI50 (SNB-75 CNS): 0.346 µM; TGI (SNB-75 CNS): 8.72 µM; GI50 (OVCAR-5 ovarian): 0.732 µM; TGI (OVCAR-5 ovarian): > 100 µM

How did the GI50 (UO-31 renal) turn out when `O=c1oc2ccc(Br)cc2c(=O)n1-c1ccc(I)cc1F` was run?
Its GI50 is 0.24 µM.

And the TGI (UO-31 renal)?
The TGI was 1.22 µM.

What about the GI50 (OVCAR-4 ovarian) of the same compound?
Its GI50 is 0.389 µM.

And the TGI (OVCAR-4 ovarian)?
The TGI was 13.7 µM.

What about the GI50 (SW-620 colon) of the same compound?
The GI50 was 0.479 µM.

What about the TGI (SW-620 colon) of the same compound?
Its TGI is 10.5 µM.

And the GI50 (MALME-3M melanoma)?
The GI50 was 0.32 µM.

What about the TGI (MALME-3M melanoma) of the same compound?
Its TGI is 1.27 µM.

What about the GI50 (MDA-MB-435) of the same compound?
Its GI50 is 0.409 µM.

What about the TGI (MDA-MB-435) of the same compound?
Its TGI is 3.82 µM.

And the GI50 (RPMI-8226 leukemia)?
The GI50 was 0.266 µM.

And the TGI (RPMI-8226 leukemia)?
The TGI was 1.16 µM.

What about the GI50 (SK-MEL-2 melanoma) of the same compound?
Its GI50 is 0.252 µM.

And the TGI (SK-MEL-2 melanoma)?
Its TGI is 0.791 µM.

What about the GI50 (NCI-H23 lung) of the same compound?
The GI50 was 0.328 µM.

What about the TGI (NCI-H23 lung) of the same compound?
Its TGI is 1.89 µM.

What about the GI50 (SNB-75 CNS) of the same compound?
The GI50 was 0.219 µM.

And the TGI (SNB-75 CNS)?
The TGI was 1.36 µM.

And the GI50 (OVCAR-5 ovarian)?
The GI50 was 3.59 µM.

And the TGI (OVCAR-5 ovarian)?
The TGI was over 100 µM.

Which GI50 (UO-31 renal) does the source give for `O=C(Nc1n[nH]c2nnc(-c3cccnc3)cc12)C1CC1` here?
The GI50 was 1.65 µM.

And the TGI (UO-31 renal)?
The TGI was over 20.3 µM.

And the GI50 (OVCAR-4 ovarian)?
Its GI50 is 7.66 µM.

What about the TGI (OVCAR-4 ovarian) of the same compound?
Its TGI is over 25 µM.

What about the GI50 (SW-620 colon) of the same compound?
The GI50 was 8.97 µM.

What about the TGI (SW-620 colon) of the same compound?
The TGI was over 25 µM.

And the GI50 (MALME-3M melanoma)?
The GI50 was over 25 µM.

And the TGI (MALME-3M melanoma)?
Its TGI is over 25 µM.

And the GI50 (MDA-MB-435)?
Its GI50 is over 11.3 µM.

And the TGI (MDA-MB-435)?
The TGI was over 25 µM.

And the GI50 (RPMI-8226 leukemia)?
Its GI50 is over 25 µM.

And the TGI (RPMI-8226 leukemia)?
The TGI was over 25 µM.

What about the GI50 (SK-MEL-2 melanoma) of the same compound?
Its GI50 is 21.8 µM.

What about the TGI (SK-MEL-2 melanoma) of the same compound?
The TGI was over 25 µM.

What about the GI50 (NCI-H23 lung) of the same compound?
Its GI50 is over 15.9 µM.

And the TGI (NCI-H23 lung)?
The TGI was over 25 µM.

What about the GI50 (SNB-75 CNS) of the same compound?
The GI50 was 0.141 µM.

What about the TGI (SNB-75 CNS) of the same compound?
The TGI was over 25 µM.

What about the GI50 (OVCAR-5 ovarian) of the same compound?
Its GI50 is over 17.8 µM.

And the TGI (OVCAR-5 ovarian)?
Its TGI is over 25 µM.

Which results are given for `CCCCCCCCCCCCOC1C(CNC(=O)C2OC3OC(C)(C)OC3C2NC(=O)Nc2ccc(CC(=O)NC(Cc3ccccc3)C(=O)O)cc2)OC2OC(C)(C)OC21` (centres undefined)?
GI50 (UO-31 renal): > 25 µM; TGI (UO-31 renal): > 25 µM; GI50 (OVCAR-4 ovarian): > 25 µM; TGI (OVCAR-4 ovarian): > 25 µM; GI50 (SW-620 colon): > 25 µM; TGI (SW-620 colon): > 25 µM; GI50 (MALME-3M melanoma): > 25 µM; TGI (MALME-3M melanoma): > 25 µM; GI50 (MDA-MB-435): > 25 µM; TGI (MDA-MB-435): > 25 µM; GI50 (RPMI-8226 leukemia): 15.9 µM; TGI (RPMI-8226 leukemia): > 25 µM; GI50 (SK-MEL-2 melanoma): > 25 µM; TGI (SK-MEL-2 melanoma): > 25 µM; GI50 (NCI-H23 lung): > 25 µM; TGI (NCI-H23 lung): > 25 µM; GI50 (SNB-75 CNS): > 25 µM; TGI (SNB-75 CNS): > 25 µM; GI50 (OVCAR-5 ovarian): > 25 µM; TGI (OVCAR-5 ovarian): > 25 µM

Which results are given for `Cn1c(/C=C/[N+](=O)[O-])cc2ccccc21`?
GI50 (UO-31 renal): 1.47 µM; TGI (UO-31 renal): 3.64 µM; GI50 (OVCAR-4 ovarian): 10.3 µM; TGI (OVCAR-4 ovarian): 92.1 µM; GI50 (SW-620 colon): 1.67 µM; TGI (SW-620 colon): 3.22 µM; GI50 (MALME-3M melanoma): 11.1 µM; TGI (MALME-3M melanoma): 25.9 µM; GI50 (MDA-MB-435): 1.69 µM; TGI (MDA-MB-435): 4.34 µM; GI50 (RPMI-8226 leukemia): 3.18 µM; TGI (RPMI-8226 leukemia): > 100 µM; GI50 (SK-MEL-2 melanoma): 15.3 µM; TGI (SK-MEL-2 melanoma): 68.3 µM; GI50 (NCI-H23 lung): 2.73 µM; TGI (NCI-H23 lung): 17.1 µM; GI50 (SNB-75 CNS): 3.36 µM; TGI (SNB-75 CNS): 28.4 µM; GI50 (OVCAR-5 ovarian): 21.2 µM; TGI (OVCAR-5 ovarian): 56.6 µM

What does the source list for `COc1cc(C(=O)N/N=C/c2ccc(N(C)C)cc2)cc(OC)c1OC`?
GI50 (UO-31 renal): 0.656 µM; TGI (UO-31 renal): > 100 µM; GI50 (OVCAR-4 ovarian): 0.824 µM; TGI (OVCAR-4 ovarian): > 100 µM; GI50 (SW-620 colon): 0.424 µM; TGI (SW-620 colon): > 100 µM; GI50 (MALME-3M melanoma): 0.582 µM; TGI (MALME-3M melanoma): > 100 µM; GI50 (MDA-MB-435): 0.0743 µM; TGI (MDA-MB-435): 0.307 µM; GI50 (RPMI-8226 leukemia): 0.344 µM; GI50 (SK-MEL-2 melanoma): 1.15 µM; TGI (SK-MEL-2 melanoma): > 81.3 µM; GI50 (NCI-H23 lung): 0.588 µM; TGI (NCI-H23 lung): > 100 µM; GI50 (SNB-75 CNS): 0.152 µM; TGI (SNB-75 CNS): > 100 µM; GI50 (OVCAR-5 ovarian): 3.29 µM; TGI (OVCAR-5 ovarian): > 100 µM

With `COc1ccc(Nc2cc(C)nc(NCCCNc3ccnc4cc(Cl)ccc34)n2)cc1` as the compound, how does the GI50 (UO-31 renal) read?
The GI50 was 1.52 µM.

What about the TGI (UO-31 renal) of the same compound?
The TGI was 2.95 µM.

And the GI50 (OVCAR-4 ovarian)?
The GI50 was 1.44 µM.

And the TGI (OVCAR-4 ovarian)?
Its TGI is 4.86 µM.

What about the GI50 (SW-620 colon) of the same compound?
Its GI50 is 1.61 µM.

And the TGI (SW-620 colon)?
The TGI was 3.51 µM.

And the GI50 (MALME-3M melanoma)?
The GI50 was 2.07 µM.

What about the TGI (MALME-3M melanoma) of the same compound?
The TGI was 3.94 µM.

What about the GI50 (MDA-MB-435) of the same compound?
Its GI50 is 1.35 µM.

What about the TGI (MDA-MB-435) of the same compound?
The TGI was 2.64 µM.

What about the GI50 (RPMI-8226 leukemia) of the same compound?
Its GI50 is 1.81 µM.

And the TGI (RPMI-8226 leukemia)?
Its TGI is 5 µM.

What about the GI50 (SK-MEL-2 melanoma) of the same compound?
The GI50 was 2.19 µM.

What about the TGI (SK-MEL-2 melanoma) of the same compound?
Its TGI is 3.76 µM.

What about the GI50 (NCI-H23 lung) of the same compound?
Its GI50 is 2.27 µM.

And the TGI (NCI-H23 lung)?
The TGI was 5.78 µM.

And the GI50 (SNB-75 CNS)?
The GI50 was 1.28 µM.

And the TGI (SNB-75 CNS)?
Its TGI is 2.54 µM.

And the GI50 (OVCAR-5 ovarian)?
Its GI50 is 2.35 µM.

And the TGI (OVCAR-5 ovarian)?
The TGI was 6.69 µM.

Which results are given for `CC(=O)OC1CC2C3CCC4C[C@@H](NC(=O)C=C(C)C)CC[C@]4(C)C3CC[C@]2(C)[C@H]1C(C)N(C)C` (some centres undefined)?
GI50 (UO-31 renal): 0.949 µM; TGI (UO-31 renal): 2.95 µM; GI50 (OVCAR-4 ovarian): 2.82 µM; TGI (OVCAR-4 ovarian): 17.5 µM; GI50 (SW-620 colon): 1.65 µM; TGI (SW-620 colon): 3.47 µM; GI50 (MALME-3M melanoma): 2.04 µM; TGI (MALME-3M melanoma): 4.53 µM; GI50 (MDA-MB-435): 2.17 µM; TGI (MDA-MB-435): 4.82 µM; GI50 (RPMI-8226 leukemia): 1.66 µM; TGI (RPMI-8226 leukemia): 5.67 µM; GI50 (SK-MEL-2 melanoma): 2.31 µM; TGI (SK-MEL-2 melanoma): 4.58 µM; GI50 (NCI-H23 lung): 2.55 µM; TGI (NCI-H23 lung): 8.56 µM; GI50 (SNB-75 CNS): 2 µM; TGI (SNB-75 CNS): 6.51 µM; GI50 (OVCAR-5 ovarian): 3.46 µM; TGI (OVCAR-5 ovarian): 10.4 µM
